Reference: PMC5765510, “One pot synthesis of GDP‐mannose by a multi‐enzyme cascade for enzymatic assembly of lipid‐linked oligosaccharides” (Biotechnology and Bioengineering, 2017)

Key:
Type in all cases: biochemical
[1] = biological target: T1, 1D-Ppk2 (His6-1D-Ppk2) (Pseudomonas aeruginosa, UniProt Q9I154); assay: polyphosphate-dependent phosphorylation, HPAEC-UV; conditions: 4 mM PolyP14, 10 mM MgCl2, pH 7.5, 30 °C; reversible
T1 construct: gene PA2428; N-terminal His6 tag, codon-optimised synthetic gene, pET-28a(+), expressed in E. coli BL21-Gold(DE3), IMAC purified, 38 kDa
T1 sequence (Q9I154 1-304): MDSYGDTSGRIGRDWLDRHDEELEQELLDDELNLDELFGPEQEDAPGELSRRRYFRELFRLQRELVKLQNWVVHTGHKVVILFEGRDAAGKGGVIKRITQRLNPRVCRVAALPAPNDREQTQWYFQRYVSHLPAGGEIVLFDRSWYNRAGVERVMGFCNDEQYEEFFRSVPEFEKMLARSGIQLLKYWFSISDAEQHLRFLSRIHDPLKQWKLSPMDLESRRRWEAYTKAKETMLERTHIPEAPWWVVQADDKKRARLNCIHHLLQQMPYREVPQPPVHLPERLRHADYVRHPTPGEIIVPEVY

[2] = biological target: T2, His6-Glk (Escherichia coli, UniProt P0A6V8); assay: man6P formation, HPAEC-UV/CD; conditions: 10 mM MgCl2, pH 7.5, 30 °C
T2 construct: N-terminal His6 tag, pET-28a(+), expressed in E. coli BL21-Gold(DE3), IMAC purified, 39 kDa
T2 sequence (P0A6V8 1-321): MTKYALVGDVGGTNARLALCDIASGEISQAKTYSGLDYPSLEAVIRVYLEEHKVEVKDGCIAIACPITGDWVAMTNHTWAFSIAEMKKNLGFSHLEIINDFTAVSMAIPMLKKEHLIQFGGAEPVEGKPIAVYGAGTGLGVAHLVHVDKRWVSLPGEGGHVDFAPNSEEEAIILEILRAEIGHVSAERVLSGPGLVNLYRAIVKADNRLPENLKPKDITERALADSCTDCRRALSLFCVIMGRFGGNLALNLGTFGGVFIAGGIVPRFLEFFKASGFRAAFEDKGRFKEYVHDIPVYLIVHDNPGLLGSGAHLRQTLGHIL

[3] = biological target: T3, ManB-His6 (ManB-His6/ManC) (Escherichia coli, UniProt P24175); assay: man1P/man6P equilibrium, HPAEC-CD; conditions: 1.8 mM, 0.25 mM glucose-1,6-bisphosphate, 10 mM MgCl2, pH 7.5, 30 °C
T3 construct: C-terminal His6 ManB co-expressed and co-purified with untagged ManC, E. coli BL21-Gold(DE3), 50 kDa; ManB/ManC ratio only estimated 1:1; with Mannose-1-phosphate guanylyltransferase
T3 sequence (P24174 whole entry): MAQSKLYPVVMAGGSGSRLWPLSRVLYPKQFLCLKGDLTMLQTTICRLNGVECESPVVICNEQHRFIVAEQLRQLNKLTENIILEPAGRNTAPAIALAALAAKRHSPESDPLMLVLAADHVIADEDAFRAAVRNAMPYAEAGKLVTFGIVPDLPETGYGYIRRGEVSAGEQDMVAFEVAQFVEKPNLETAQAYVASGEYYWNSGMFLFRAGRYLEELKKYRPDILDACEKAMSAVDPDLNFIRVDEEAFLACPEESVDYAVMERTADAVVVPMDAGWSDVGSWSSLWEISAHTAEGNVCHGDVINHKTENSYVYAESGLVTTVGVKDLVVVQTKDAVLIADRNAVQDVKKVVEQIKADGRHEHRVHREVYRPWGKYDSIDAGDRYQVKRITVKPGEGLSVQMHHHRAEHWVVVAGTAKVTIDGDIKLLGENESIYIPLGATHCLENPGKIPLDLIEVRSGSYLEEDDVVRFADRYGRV
T3 sequence (P24175 whole entry): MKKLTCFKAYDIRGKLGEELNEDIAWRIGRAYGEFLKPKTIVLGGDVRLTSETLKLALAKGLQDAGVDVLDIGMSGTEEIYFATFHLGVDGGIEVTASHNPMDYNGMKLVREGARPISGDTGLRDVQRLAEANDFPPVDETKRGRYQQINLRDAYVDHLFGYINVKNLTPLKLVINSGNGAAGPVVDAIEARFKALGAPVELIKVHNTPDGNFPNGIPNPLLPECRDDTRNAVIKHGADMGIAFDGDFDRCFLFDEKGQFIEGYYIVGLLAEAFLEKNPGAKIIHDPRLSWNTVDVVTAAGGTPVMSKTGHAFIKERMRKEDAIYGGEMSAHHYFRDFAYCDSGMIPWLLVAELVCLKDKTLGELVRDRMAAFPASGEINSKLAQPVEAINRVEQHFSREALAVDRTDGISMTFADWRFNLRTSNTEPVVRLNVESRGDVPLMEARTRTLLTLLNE

Nc1ncnc2c1ncn2[C@@H]1O[C@H](COP(=O)(O)OP(=O)(O)O)[C@@H](O)[C@H]1O [ADP]
polyphosphate-dependent phosphorylation, HPAEC-UV [1]: phosphorylation of ADP and GDP, respectively, by His6‐1D‐Ppk2 are equilibrium reactions

Nc1ncnc2c1ncn2[C@@H]1O[C@H](COP(=O)(O)OP(=O)(O)OP(=O)(O)O)[C@@H](O)[C@H]1O [ATP]
man6P formation, HPAEC-UV/CD ([2]; mannose co-substrate): conversion of ATP and mannose to man6P and ADP is irreversible

Nc1nc2c(ncn2[C@@H]2O[C@H](COP(=O)(O)OP(=O)(O)O)[C@@H](O)[C@H]2O)c(=O)[nH]1 [GDP]
polyphosphate-dependent phosphorylation, HPAEC-UV [1]: phosphorylation of ADP and GDP, respectively, by His6‐1D‐Ppk2 are equilibrium reactions

O=P(O)(O)O[C@H]1O[C@H](CO)[C@@H](O)[C@H](O)[C@@H]1O [man1P]
man1P/man6P equilibrium, HPAEC-CD [3]: equilibrium conversion of man1P to man6P catalyzed by the ManB‐His6/ManC complex

OC[C@H]1OC(O)[C@@H](O)[C@@H](O)[C@@H]1O (some centres unmarked) [mannose]
man6P formation, HPAEC-UV/CD ([2]; ATP 1.7 mM, irreversible): conversion of ATP and mannose to man6P and ADP is irreversible
